Assay results as given in US20040101834A1, “Method of and kit for assessing responsiveness of cancer patients to antifolate chemotherapy” (priority 2001, published 2004).
Where a chain is given by its changes, count along the chain named. Numbers in names are those of the source. Like-named read-outs stand apart in the source and are kept apart here. Marks after values point to notes of the source that are not given here.

Experiments:
[1] = test system: parental human CEM leukemia cells (CEM/WT); test: Antifolate growth inhibition, 72 h drug exposure; format: cell-based
[2] = test system: GW70 cells (GW1843U89-resistant CEM subline); test: Antifolate growth inhibition, 72 h drug exposure; format: cell-based, human; conditions: for sensitivity relative to parental CEM cells: lipid-soluble antifolates
GW70/LF cells = test: Antifolate growth inhibition, 72 h drug exposure; format: cell-based
Experimental: The GW70 subline was established by stepwise exposure of parental CEM cells to gradually increasing concentrations of the potent thymidylate synthase inhibitor, GW1843U89 in normal growth medium; this selection was initiated at 1.5 nM and terminated at 70 nM GW1843U89, the cells were therefore termed GW70. GW70/LF cells were established by gradual deprivation of folic acid from the growth medium; this was terminated at a concentration of 5 nM folic acid.

RFC in GW70 cells = biological target: T1, RFC in GW70 cells (Homo sapiens, UniProt P41440, E45K/H27R/S46I/V29L); test: [3H]MTX and [3H]folic acid transport; format: cell-based; conditions: GW70 vs parental CEM
T1 construct: endogenous in cells; host or cells: CEM-GW70 (GW1843U89-resistant CCRF-CEM subline)
T1 sequence (P41440 1-591 H27R/V29L/E45K/S46I): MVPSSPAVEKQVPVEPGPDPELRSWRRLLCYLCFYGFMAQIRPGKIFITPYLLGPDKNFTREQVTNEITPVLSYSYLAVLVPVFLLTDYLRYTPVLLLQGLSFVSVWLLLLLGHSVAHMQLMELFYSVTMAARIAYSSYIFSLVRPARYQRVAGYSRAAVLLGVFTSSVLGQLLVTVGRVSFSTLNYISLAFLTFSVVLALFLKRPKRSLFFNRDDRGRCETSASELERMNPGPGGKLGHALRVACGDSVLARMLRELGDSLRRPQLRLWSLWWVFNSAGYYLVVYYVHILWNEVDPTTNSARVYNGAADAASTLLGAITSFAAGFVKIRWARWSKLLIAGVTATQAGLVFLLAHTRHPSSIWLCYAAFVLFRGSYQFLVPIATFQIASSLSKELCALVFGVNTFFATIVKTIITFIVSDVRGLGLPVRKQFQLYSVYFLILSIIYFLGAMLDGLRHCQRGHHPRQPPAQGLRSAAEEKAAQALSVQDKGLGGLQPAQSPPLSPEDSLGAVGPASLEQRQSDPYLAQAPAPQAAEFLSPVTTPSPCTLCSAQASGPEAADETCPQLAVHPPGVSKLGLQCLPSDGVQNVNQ
Experimental: At selected transport time intervals, ranging from 0.5-30 minutes, uptake was terminated by the addition of 10 ml ice-cold HBSS, after which centrifugation and cell wash with another 10 ml ice-cold HBSS were performed. The final cell pellet was then counted for radioactivity.

[3] = test system: parental human CEM leukemia cells (CEM/WT); test: Folate growth requirement; format: cell-based; conditions: read-out: EC50, concentration necessary to support 50% of maximal growth, Table 6
Excerpt: (§1) Table 6 below summarizes the antifolate growth inhibition and folate growth requirement in parental human CEM leukemia cells and their GW70 subline.

[4] = test system: GW70 cells (GW1843U89-resistant CEM subline); test: Folate growth requirement; format: cell-based, human; conditions: Homo sapiens, read-out: EC50, concentration necessary to support 50% of maximal growth; Table 6; column GW (GW70)
Excerpt: as §1

[5] = test system: mouse MTX^rA leukemia transfectant harboring Glu45Lys RFC cDNA; test: Folate growth requirement in RFC transfectants; format: cell-based
Experimental: (§2) Thereafter, cells were washed twice with serum-free folic acid-free medium, in order to eliminate GAT. […] Thereafter, cells were exposed continuously to various concentrations of leucovorin or folic acid for 72 hours, following which cell numbers were determined by hemocytometer count of viable cells, using trypan blue exclusion.

[6] = test system: mouse MTX^rA leukemia transfectant harboring His27/His56 RFC cDNA; test: Folate growth requirement in RFC transfectants; format: cell-based
Experimental: as §2

[7] = test system: mouse MTX^rA leukemia transfectant harboring Arg27/His56 RFC cDNA; test: Folate growth requirement in RFC transfectants; format: cell-based
Experimental: as §2

[8] = test system: mouse MTX^rA leukemia transfectant harboring His27 RFC cDNA; test: Folate growth requirement in RFC transfectants; format: cell-based
Experimental: as §2

[9] = test system: mouse MTX^rA leukemia transfectant harboring native RFC (Arg27) cDNA; test: Folate growth requirement in RFC transfectants; format: cell-based
Experimental: as §2

TS = TS (Mus musculus, UniProt P07607); conditions: Jackman, 1991; cited from earlier work
Sequence of TS (P07607 whole entry): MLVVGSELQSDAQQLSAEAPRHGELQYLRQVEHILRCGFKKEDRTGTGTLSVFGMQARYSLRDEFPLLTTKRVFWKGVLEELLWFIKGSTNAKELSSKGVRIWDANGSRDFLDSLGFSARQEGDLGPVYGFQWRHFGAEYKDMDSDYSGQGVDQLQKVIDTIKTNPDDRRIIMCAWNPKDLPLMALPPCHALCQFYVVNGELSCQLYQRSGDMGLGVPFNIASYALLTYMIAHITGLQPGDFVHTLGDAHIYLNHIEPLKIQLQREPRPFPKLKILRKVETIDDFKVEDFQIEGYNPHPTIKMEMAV

[10] = substrate: CN(Cc1cnc2nc(N)nc(N)c2n1)c1ccc(C(=O)N[C@@H](CCC(=O)O)C(=O)O)cc1; test: cells, lysate or membranes; conditions: other: CEM/GW70; influx, initial (3 min) uptake rates, Lineweaver-Burk; pH 7.4; 37.0 °C
[11] = substrate: Nc1nc2ncc(CNc3ccc(C(=O)N[C@@H](CCC(=O)O)C(=O)O)cc3)nc2c(=O)[nH]1; test: cells, lysate or membranes; format: cell-based, human; conditions: influx, initial (3 min) uptake rates, Lineweaver-Burk, pH 7.4, 37.0 °C
[12] = substrate: CN(Cc1cnc2nc(N)nc(N)c2n1)c1ccc(C(=O)N[C@@H](CCC(=O)O)C(=O)O)cc1; test: cells, lysate or membranes; format: cell-based, human; conditions: other: CEM/GW70-LF; influx, initial (3 min) uptake rates, Lineweaver-Burk; pH 7.4; 37.0 °C
[13] = Table 10, CEM/WT, 72 h drug exposure, read-out: IC50
[14] = Table 10, GW70, 72 h drug exposure, read-out: IC50
[15] = Table 10, GW70/LF, read-out: IC50
[16] = Homo sapiens, Table 10, CEM/WT, 72 h drug exposure, read-out: IC50
[17] = Homo sapiens, 72 h, Table 10, GW70/LF
[18] = Homo sapiens, 72 h, Table 10, GW70/LF grown in the presence of 2.3 µM folic acid
[19] = Mus musculus, read-out: EC50, concentration necessary to support 50% of maximal growth of control cells

Cc1ccc2nc(N)[nH]c(=O)c2c1Sc1ccncc1 [AG337]
IC50 [1, 13]: 1.8 ± 0.34 µM | sensitivity relative to parental CEM cells ([2]; GW70): collaterally more sensitive than parental CEM cells | IC50 [2, 14]: 0.974 ± 0.241 µM | IC50 (GW70/LF cells; Table 10, GW70/LF grown in the presence of 2.3 µM folic acid, read-out: IC50): 2.22 ± 0.264 µM | IC50 (GW70/LF cells; [15]): 0.92 ± 0.43 µM

CN1c2c(nc(N)[nH]c2=O)NCC1CNc1ccc(C(=O)N[C@@H](CCC(=O)O)C(=O)O)cc1 (some centres unmarked) [5-methyl-THF, 5-methyltetrahydrofolate]
fold increased affinity of RFC (RFC in GW70 cells): 3 fold

COc1cc(NCc2ccc3nc(N)nc(N)c3c2C)cc(OC)c1OC [TMQ]
IC50 [1, 16]: 0.0075 ± 0.0021 µM | sensitivity relative to parental CEM cells ([2]; GW70, listed as trimetraxate): hypersensitive | sensitivity relative to parental CEM cells ([2]; GW70, listed as trimetrexate): collaterally more sensitive than parental CEM cells | IC50 ([2]; Homo sapiens, 72 h): 0.0072 ± 0.0017 µM | IC50 (GW70/LF cells; [17]): 0.0011 ± 0.0002 µM

Nc1nc2[nH]cc(CCc3ccc(C(=O)N[C@@H](CCC(=O)O)C(=O)O)cc3)c2c(=O)[nH]1 [MTA]
IC50 [1, 16]: 0.023 ± 0.007 µM | IC50 ([2]; Homo sapiens, 72 h): 0.351 ± 0.073 µM | IC50 (GW70/LF cells; [17]): 0.0046 ± 0.0006 µM | IC50 (GW70/LF cells; [18]): 0.221 ± 0.047 µM

Nc1nc2c(c(=O)[nH]1)N(C=O)C(CNc1ccc(C(=O)N[C@@H](CCC(=O)O)C(=O)O)cc1)CN2 (some centres unmarked) [Leucovorin, 5-formyltetrahydrofolate]
EC50 [3]: 0.00051 ± 8e-05 µM | EC50 [4]: 0.0024 ± 0.0011 µM | MTX IC50/leucovorin EC50 ratio ([5]; Glu45Lys transfectant, in parentheses): (1.17) | EC50 [5, 19]: 0.00065 ± 0.00015 µM | EC50 [6, 19]: 0.00042 ± 0.0001 µM | MTX IC50/leucovorin EC50 ratio ([6]; in parentheses): (1.81) | EC50 [7, 19]: 0.0007 ± 0.00014 µM | MTX IC50/leucovorin EC50 ratio ([7]; in parentheses): (1.32) | EC50 [8, 19]: 0.00078 ± 9e-05 µM | MTX IC50/leucovorin EC50 ratio ([8]; in parentheses): (0.97) | MTX IC50/leucovorin EC50 ratio ([9]; Arg27 transfectant, in parentheses): (1)^c | EC50 ([9]; Mus musculus, read-out: EC50, concentration necessary to support 50% of maximal growth of control cells, Arg27 (native RFC) transfectant): 0.00076 ± 3e-05 µM

Cc1nc2ccc(CN(C)c3ccc(C(=O)N[C@@H](CCC(=O)O)C(=O)O)s3)cc2c(=O)[nH]1 [ZD1694]
IC50 [1, 16]: 0.0035 ± 0.0006 µM | IC50 ([2]; Homo sapiens, 72 h): 0.515 ± 0.224 µM | IC50 (GW70/LF cells; Homo sapiens, 72 h, Table 10, GW70/LF grown in the presence of 2.3 µM folic acid, read-out: IC50): 0.389 ± 0.055 µM | IC50 (GW70/LF cells; Homo sapiens, 72 h, Table 10, GW70/LF, read-out: IC50): 0.0032 ± 0.0005 µM | Ki (TS): 0.06 µM

C#CCN(Cc1cc2c(=O)[nH]c(C)nc2cc1C)c1ccc(C(=O)N[C@@H](CCc2nnn[nH]2)C(=O)O)c(F)c1 [ZD9331]
IC50 ([1]; Homo sapiens, 72 h): 0.016 ± 0.001 µM | IC50 ([2]; Homo sapiens, 72 h): 0.479 ± 0.067 µM | IC50 (GW70/LF cells; [17]): 0.025 ± 0.006 µM | IC50 (GW70/LF cells; [18]): 0.012 ± 0.004 µM

Nc1nc2c(c(=O)[nH]1)CC(CCc1ccc(C(=O)N[C@@H](CCC(=O)O)C(=O)O)cc1)CN2 (some centres unmarked) [DDATHF, 5,10-dideazatetrahydrofolic acid]
IC50 ([1]; Homo sapiens, 72 h): 0.011 ± 0.004 µM | IC50 ([2]; Homo sapiens, 72 h): 0.36 ± 0.106 µM | IC50 (GW70/LF cells; [17]): 0.0082 ± 0.0017 µM | IC50 (GW70/LF cells; [18]): > 10 µM

Nc1nc(N)c2nc(CNc3ccc(C(=O)N[C@@H](CCCNC(=O)c4ccccc4C(=O)O)C(=O)O)cc3)cnc2n1 [PT523]
IC50 [1, 13]: 0.0011 ± 0.0003 µM | IC50 [2, 14]: 0.081 ± 0.016 µM | IC50 (GW70/LF cells; [15]): 0.0014 ± 0.0001 µM

B1: RFC in GW70 cells (Homo sapiens; E45K/H27R/S46I/V29L) (protein)
chain: T1 sequence (P41440 1-591 H27R/V29L/E45K/S46I)
notes: endogenous in cells; host or cells: CEM-GW70 (GW1843U89-resistant CCRF-CEM subline)
Km [10]: 16 ± 3.9 µM | Km ([11]; other: CEM/GW70): 16.5 ± 3.4 µM

B2: RFC in GW70/LF cells (Homo sapiens; D88H/E45K/H27R/S46I/V29L) (protein)
chain: T1 sequence (P41440 1-591 H27R/V29L/E45K/S46I) with D88H
notes: a prominent overproduction of the native ˜80 kDa and truncated 43 kDa RFC proteins; endogenous in cells; host or cells: GW70/LF (GW70 cells adapted to low folate; 5-fold RFC gene amplification)
Km [12]: 17.1 ± 1.2 µM | Km ([11]; other: CEM/GW70-LF): 15.5 ± 2.5 µM
